Literature values, collected in patent US20150231284A1, “MOLECULAR PROBE FOR IMAGING OF PANCREATIC ISLET AND THE PRECURSOR, AND USE OF THE SAME” (Kyoto University, priority 2009, published 2015).

How the values were obtained:
pancreatic islet cells = settings: Document 2; cited from earlier work
[1] = tested on: GLP-1R-positive tumor cells; settings: Document 2; cited from earlier work

Substance: Lys^40(Ahx-DTPA-^111In)Exendin-4(9-39)
- uptake in pancreatic islets (pancreatic islet cells): about 0.4%
- uptake in the GLP-1R-positive tumor cells [1]: about 7.5%
